Data set [1] deals with NCI-H322M cells associated with non-small cell lung cancer. As to the kind of experiment: NCI DTP cancer cell growth inhibition, NCI-H322M. The conditions noted are these: a large negative number denotes stronger activity. In kind it is cell-based. How it is done: (§1) A detailed evaluation of cancer cell growth inhibition effect for T111-T115 was conducted by the NIH-National […] (NCI) Developmental Therapeutic Program (DTP) (FIG. 4). A large negative number denotes stronger activity.

Data set [2] concerns NCI-H522 cells associated with non-small cell lung cancer. As to the kind of experiment: NCI DTP cancer cell growth inhibition, NCI-H522. In kind it is cell-based. The conditions noted are these: a large negative number denotes stronger activity. How it is done:
as §1

In a further data set the test system is 60-cell line panel. Nature of the data set: NCI DTP cancer cell growth inhibition, 60-cell line panel overall. The conditions noted are these: across the 60-cell line panel. In kind it is cell-based. How it is done:
as §1

Data set [3] relates to EKVX cells associated with non-small cell lung cancer. Nature of the data set: NCI DTP cancer cell growth inhibition, EKVX. In kind it is cell-based. The conditions noted are these: a large negative number denotes stronger activity. How it is done:
as §1

Bounds are passed on as bounds.

Molecule `COc1ccc(-n2cnnc2-c2cc(OC)c(OC)c(OC)c2)cc1F` gave a melting point of 151 to 152 °C.

For the molecule `COc1ccc(-n2cnnc2-c2cc(OC)c(OC)c(OC)c2)cc1` [Compound T111, 3-(3,4,5-trimethoxyl)phenyl-4-(4-methoxyl)phenyl-1,2,4(H)triazole], the melting point was in the range of 163 to 165 °C.

On to `COc1cc(-c2nncn2-c2ccc(N(C)C)cc2)cc(OC)c1OC` [Compound T112, 3-(3,4,5-trimethoxyl)phenyl-4-(N,N-dimethylamino) phenyl-1,2,4(H)triazole], for which the melting point was 145 to 147 °C.

As to `COc1ccc(-n2cnnc2-c2cc(OC)c(OC)c(OC)c2)cc1O` [Compound T113, 3-(3,4,5-trimethoxyl)phenyl-4-(3-hydroxyl, 4-methoxyl)phenyl-1,2,4(H)triazole], the melting point lay within 197 to 198 °C.

The molecule `COc1cc(-c2nncn2-c2ccc3c(ccn3C)c2)cc(OC)c1OC` [Compound T115] showed a melting point of 157 to 159 °C. Further, the “growth inhibition (log 10GI50)” value in data set [1] is reported as under −8.00. The “growth inhibition (log 10GI50)” value in data set [2] is reported as under −8.00. Further, the “overall growth inhibition performance” value with 60-cell line panel is on record as “performed uniformly well”. In data set [3], the “growth inhibition (log 10GI50)” value is given as under −8.00.

What is called melting point is the temperature of the solid-liquid transition.

Source of the values: US8569350B2, “Anti-mitotic anti-proliferative compounds” (Rutgers, The State University of New Jersey, priority 2004, dated 2013).
